From US20100048544A1, “PYRROLO (3, 2, 1-IJ) QUINOLINE-4-ONE-DERIVATIVES FOR TREATING TUBERCULOSIS” (priority 2007, published 2010)
Like-named read-outs stand apart in the source and are kept apart here.

Tested on: Mycobacterium tuberculosis H37Rv
Assay: Mycobacterium tuberculosis H37Rv inhibition assay (MIC, microtiter plate, alamar blue)
Type: cell-based
Details: ATCC 25618 / H37Rv
[1] = H37Rv strain (ATCC25618), Middlebrook 7H9, 37° C. six days, alamar blue fluorescence after 48 hours, read-out: MIC value
[2] = read-out: MIC value, H37Rv strain (ATCC25618), Middlebrook 7H9, 37° C. six days, alamar blue fluorescence after 48 hours

| SMILES | MIC [1] | MIC [2] |
| --- | --- | --- |
| O=c1ccc2ccc(F)c3c2n1CC3CN1CCC(NCc2ccc3c(c2)C(O)CCC3)CC1 (centres unmarked) [Example 75, 9-fluoro-1-[(4-{[(8-hydroxy-5,6,7,8-tetrahydro-2-naphthalenyl)methyl]amino}-1-piperidinyl)methyl]-1,2-dihydro-4H-pyrrolo[3,2,1-ij]quinolin-4-one] | ≤ 4 µg/mL |  |
| O=c1ccc2ccc(F)c3c2n1CC3CN1CCC(NCc2cc3c(cn2)OCCO3)CC1 (centres unmarked) [Example 2, 1-({4-[(2,3-Dihydro[1,4]dioxino[2,3-c]pyridin-7-ylmethyl)amino]-1-piperidinyl}methyl)-9-fluoro-1,2-dihydro-4H-pyrrolo[3,2,1-ij]quinolin-4-one] | ≤ 4 µg/mL |  |
| O=C1COc2cc(Cl)c(CNC[C@H]3CCN(CC4Cn5c(=O)ccc6ccc(F)c4c65)C3)nc2N1 (stereo partly drawn) [Example 33, 1-{[(3R)-3-({[(7-Chloro-3-oxo-3,4-dihydro-2H-pyrido [3,2-b][1,4]oxazin-6-yl)methyl]amino}methyl)-1-pyrrolidinyl]methyl}-9-fluoro-1,2-dihydro-4H-pyrrolo[3,2,1-ij]quinolin-4-one] | ≤ 4 µg/mL |  |
| O=c1ccc2ccc(F)c3c2n1CC3CN1CCC(NCc2cnc3c(c2)OCCO3)CC1 (centres unmarked) [Example 22, 1-({4-[(2,3-dihydro[1,4]dioxino[2,3-b]pyridin-7-ylmethyl)amino]-1-piperidinyl}methyl)-9-fluoro-1,2-dihydro-4H-pyrrolo[3,2,1-ij]quinolin-4-one] |  | ≤ 4 µg/mL |
| O=c1ccc2ccc(F)c3c2n1CC3(O)CN1CCC(NCc2cc3c(nn2)OCCS3)CC1 (centres unmarked) [Example 29, 1-({4-[(6,7-Dihydro[1,4]oxathiino[2,3-c]pyridazin-3-ylmethyl)amino]-1-piperidinyl}methyl)-9-fluoro-1-hydroxy-1,2-dihydro-4H-pyrrolo[3,2,1-ij]quinolin-4-one] | ≤ 4 µg/mL |  |
| O=c1ccc2ccc(F)c3c2n1CC3CN1CC[C@H](NCc2cc3c(cn2)OCC3)[C@H](O)C1 (stereo partly drawn) [Example 8, 1-({(3R,4S)-4-[(2,3-Dihydrofuro[2,3-c]pyridin-5-ylmethyl)amino]-3-hydroxy-1-piperidinyl}methyl)-9-fluoro-1,2-dihydro-4H-pyrrolo [3,2,1-ij]quinolin-4-one] |  | ≤ 4 µg/mL |
| O=C1COc2ccc(CNC[C@H]3CCN(CC4Cn5c(=O)ccc6ccc(F)c4c65)C3)nc2N1 (stereo partly drawn) [Example 35, 9-Fluoro-1-{[(3R)-3-({[(3-oxo-3,4-dihydro-2H-pyrido[3,2-b][1,4]oxazin-6-yl)methyl]amino}methyl)-1-pyrrolidinyl]methyl}-1,2-dihydro-4H-pyrrolo[3,2,1-ij]quinolin-4-one] | ≤ 4 µg/mL |  |
| O=c1ccc2ccc(F)c3c2n1C[C@H]3CN1CCC(NCc2ccc3c(c2F)OCCO3)CC1 [Example 80, (1R)-9-fluoro-1-[(4-{[(5-fluoro-2,3-dihydro-1,4-benzodioxin-6-yl)methyl]amino}-1-piperidinyl)methyl]-1,2-dihydro-4H-pyrrolo[3,2,1-ij]quinolin-4-one] |  | ≤ 4 µg/mL |
